Results published in ChEMBL document CHEMBL1201862, “PubChem BioAssay data set” (2004).
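Cells were grown in 96-well plates and exposed to each compound for 48 hours at five concentrations; endpoints were interpolated linearly between bracketing concentrations, or set to the highest concentration if not reached. Here, GI50 denotes the concentration required for 50% inhibition of growth.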 Calls of active or inactive are those of the source. No stated cut-off is given here; in the data, active = GI50 up to about 1.1 µM and inactive = higher. Where a SMILES comes first, the peptide text is derived from it. Bridges are numbered along the chain shown (N, C = ends). [ ]: non-standard residue; d: D form. The star is where a group is joined. ξ: configuration not given here. ξNMePhe(4-NMe2) = CNC(Cc1ccc(N(C)C)cc1)C(=O)O; Picolinoyl(3-OH) = O=C(c1ncccc1O)*; ξPip(4-oxo) = O=C1CCNC(C(=O)O)C1; Phg = N[CH](C(=O)O)c1ccccc1; Abu = CC[CH](N)C(=O)O

Key:
Experiment in all cases: NCI-60 cell line screen, 48 h
NCI-H460 = system: NCI-H460
SNB-19 = system: SNB-19
BT-549 = system: BT-549
MDA-N = system: MDA-N
SR = system: SR
A498 = system: A498
CAKI-1 = system: CAKI-1
Malme-3M = system: Malme-3M
OVCAR-8 = system: OVCAR-8
SF-295 = system: SF-295
NCI/ADR-RES = system: NCI/ADR-RES
OVCAR-3 = system: OVCAR-3
U-251 = system: U-251
T47D = system: T47D
ACHN = system: ACHN
IGROV-1 = system: IGROV-1
A549 = system: A549
OVCAR-4 = system: OVCAR-4
KM12 = system: KM12

| Compound | GI50 (NCI-H460) | GI50 (SNB-19) | GI50 (BT-549) | GI50 (MDA-N) | GI50 (SR) | GI50 (A498) | GI50 (CAKI-1) | GI50 (Malme-3M) | GI50 (OVCAR-8) | GI50 (SF-295) | GI50 (NCI/ADR-RES) | GI50 (OVCAR-3) | GI50 (U-251) | GI50 (T47D) | GI50 (ACHN) | GI50 (IGROV-1) | GI50 (A549) | GI50 (OVCAR-4) | GI50 (KM12) |
| --- | --- | --- | --- | --- | --- | --- | --- | --- | --- | --- | --- | --- | --- | --- | --- | --- | --- | --- | --- |
| COC(=O)C1(Cc2ccc3c(c2)CCC3)Cc2ccc3c(c2C1=O)CCC3 (stereo unspecified) | 12.7 µM (inactive) | 8.91 µM (inactive) | 5.68 µM (inactive) | 2.01 µM (inactive) | 2.55 µM (inactive) | 5.61 µM (inactive) | 5.45 µM (inactive) | 4.02 µM (inactive) | 15.2 µM (inactive) | 3.72 µM (inactive) | 3.07 µM (inactive) | 4.26 µM (inactive) | 4.65 µM (inactive) | 4.35 µM (inactive) | 18.6 µM (inactive) | 5.46 µM (inactive) | 9.48 µM (inactive) | 7.73 µM (inactive) | 4.12 µM (inactive) |
| COC1=C(C)C(=O)c2c(c(COC(N)=O)c3n2CC2C3N2C)C1=O (stereo unspecified) | < 0.01 µM (active) | < 0.0115 µM (active) | 0.0222 µM (active) | 0.019 µM (active) | < 0.01 µM (active) | 0.0519 µM (active) | < 0.01 µM (active) | 0.0495 µM (active) | < 0.0191 µM (active) | < 0.01 µM (active) | < 0.025 µM (active) | 0.0256 µM (active) | < 0.01 µM (active) | 0.0301 µM (active) | < 0.01 µM (active) | 0.0425 µM (active) | < 0.01 µM (active) | 0.0826 µM (active) | < 0.0166 µM (active) |
| c1ccc2c(c1)NC1(N3CCCCC3)CCCCC21 (stereo unspecified) | 50.6 µM (inactive) | 51.5 µM (inactive) | 53 µM (inactive) | 28.1 µM (inactive) | 32 µM (inactive) | 32.8 µM (inactive) | 55.6 µM (inactive) | 58.2 µM (inactive) | 63.2 µM (inactive) | 45.4 µM (inactive) | 91.8 µM (inactive) | 41.7 µM (inactive) | 41.2 µM (inactive) | 20.9 µM (inactive) | 47.1 µM (inactive) | 28.2 µM (inactive) | 30.5 µM (inactive) | 56.4 µM (inactive) | 32.3 µM (inactive) |
| C[C@@H]1CCC2[C@@H](C)C(=O)O[C@@H]3C4C[C@@H]1[C@@]23OO[C@@]4(C)O (stereo partly specified) | 52 µM (inactive) | > 100 µM (inactive) | > 100 µM (inactive) | 55.3 µM (inactive) | > 100 µM (inactive) | > 100 µM (inactive) | > 100 µM (inactive) | > 100 µM (inactive) | 82.8 µM (inactive) | > 100 µM (inactive) | > 100 µM (inactive) | > 100 µM (inactive) | 48.8 µM (inactive) | 87.3 µM (inactive) | 58.7 µM (inactive) | 19.7 µM (inactive) | > 100 µM (inactive) | > 100 µM (inactive) | > 100 µM (inactive) |
| CN(C)CC1CCC/C(=C\c2ccc(Cl)cc2)C1=O (stereo unspecified) | 17.3 µM (inactive) | 11.8 µM (inactive) | 1.73 µM (inactive) | 1.94 µM (inactive) | 1.33 µM (inactive) | 17.3 µM (inactive) | 1.93 µM (inactive) | 1.91 µM (inactive) | 3.85 µM (inactive) | 14.2 µM (inactive) | 3.62 µM (inactive) | 3.21 µM (inactive) | 3.71 µM (inactive) | 3.49 µM (inactive) | 2.57 µM (inactive) | 3.21 µM (inactive) | 16.9 µM (inactive) | 2.79 µM (inactive) | 1.69 µM (inactive) |
| CC1=C/C(O)CC(=O)Cc2nc(co2)C(=O)N2CCC=C2C(=O)OC(C(C)C)C(C)/C=C/C(=O)NC\C=C\1.CCC1NC(=O)C(NC(=O)c2ncccc2O)C(C)OC(=O)C(c2ccccc2)NC(=O)C2CC(=O)CCN2C(=O)C(Cc2ccc(N(C)C)cc2)N(C)C(=O)C2CCCN2C1=O (stereo unspecified) ({Picolinoyl(3-OH)}-T[Abu]P[ξNMePhe(4-NMe2)][ξPip(4-oxo)][Phg]; ester 1-C; configuration not given here) | 3.75 µM (inactive) | 13.1 µM (inactive) | 16.9 µM (inactive) | 8.07 µM (inactive) | 3.86 µM (inactive) | 10 µM (inactive) | 28.2 µM (inactive) | 12.8 µM (inactive) | 25.6 µM (inactive) | 3.66 µM (inactive) | 25.3 µM (inactive) | 8.04 µM (inactive) | 11.7 µM (inactive) | 15.4 µM (inactive) | 7.96 µM (inactive) | 11.4 µM (inactive) | 16.7 µM (inactive) | 12.1 µM (inactive) | 10.4 µM (inactive) |
| COc1ccc(C(=O)/C=C/c2ccc(O)c(O)c2F)c(OC)c1 | 2.75 µM (inactive) | 8.3 µM (inactive) | 5.38 µM (inactive) | 3.23 µM (inactive) | 0.893 µM (active) | 8.51 µM (inactive) | 3.24 µM (inactive) | 7.64 µM (inactive) | 7.76 µM (inactive) | 5.41 µM (inactive) | 4.62 µM (inactive) | 1.05 µM (active) | 2.94 µM (inactive) | 0.649 µM (active) | 3.01 µM (inactive) | 9.98 µM (inactive) | 11 µM (inactive) | 4.09 µM (inactive) | 4.99 µM (inactive) |
| CC(=O)CCCCC(=O)Nc1ccc(CC(NC(=O)OC(C)(C)C)C(=O)NCC(=O)OCc2ccccc2)cc1 (stereo unspecified) | 20.7 µM (inactive) | 21.9 µM (inactive) | 14.1 µM (inactive) | 21 µM (inactive) | 22.2 µM (inactive) | 23.1 µM (inactive) | 15.7 µM (inactive) | 19.3 µM (inactive) | 20 µM (inactive) | 18.8 µM (inactive) | > 100 µM (inactive) | 14.8 µM (inactive) | 18.7 µM (inactive) | 19.9 µM (inactive) | 30.5 µM (inactive) | 33.3 µM (inactive) | 53.7 µM (inactive) | 13.7 µM (inactive) | 29.4 µM (inactive) |
| O=S(=O)(O)c1cc(O)c2c(/N=C\c3ccccc3O)cc(S(=O)(=O)O)cc2c1 | > 100 µM (inactive) | > 100 µM (inactive) | > 100 µM (inactive) | > 100 µM (inactive) | > 100 µM (inactive) | > 100 µM (inactive) | > 100 µM (inactive) | > 100 µM (inactive) | > 100 µM (inactive) | > 100 µM (inactive) | > 100 µM (inactive) | > 100 µM (inactive) | > 100 µM (inactive) | 82.6 µM (inactive) | > 100 µM (inactive) | > 100 µM (inactive) | > 100 µM (inactive) | > 100 µM (inactive) | > 100 µM (inactive) |
| Cc1cc(S(N)(=O)=O)c(SCc2nc(N)nc(N(C)C)n2)cc1Cl | > 10 µM (inactive) | > 10 µM (inactive) | > 10 µM (inactive) | > 10 µM (inactive) | > 10 µM (inactive) | > 10 µM (inactive) | > 10 µM (inactive) | > 10 µM (inactive) | > 10 µM (inactive) | > 10 µM (inactive) | > 10 µM (inactive) | > 10 µM (inactive) | > 10 µM (inactive) | > 10 µM (inactive) | > 10 µM (inactive) | > 10 µM (inactive) | > 10 µM (inactive) | > 10 µM (inactive) | > 10 µM (inactive) |
| O=C1OC(=O)C(=C\c2ccc3c(c2)OCO3)/C1=C/c1ccc2c(c1)OCO2 | > 100 µM (inactive) | > 100 µM (inactive) | > 100 µM (inactive) | > 100 µM (inactive) | > 52.8 µM (inactive) | > 100 µM (inactive) | > 100 µM (inactive) | > 100 µM (inactive) | > 84.5 µM (inactive) | > 100 µM (inactive) | > 100 µM (inactive) | > 100 µM (inactive) | > 80.7 µM (inactive) | > 100 µM (inactive) | > 100 µM (inactive) | > 100 µM (inactive) | 37.9 µM (inactive) | > 100 µM (inactive) | > 100 µM (inactive) |
| c1ccc2c(c1)c1c3c(c4c(n32)=NCCN4)CCC1 | 34.7 µM (inactive) | 89.9 µM (inactive) | 32.1 µM (inactive) | 20.7 µM (inactive) | 17.4 µM (inactive) | 28 µM (inactive) | 40.8 µM (inactive) | 31.6 µM (inactive) | 39.6 µM (inactive) | 26.9 µM (inactive) | 27.9 µM (inactive) | 34.8 µM (inactive) | 33.8 µM (inactive) | 20.7 µM (inactive) | 40.9 µM (inactive) | 27.4 µM (inactive) | 48.5 µM (inactive) | 42.5 µM (inactive) | 27 µM (inactive) |
| CC(=O)OC1C[C@@H](C)C2(CC(c3ccoc3)OC2=O)C2CCC(O)C3(CO3)C12CO (stereo partly specified) | > 100 µM (inactive) | > 100 µM (inactive) | > 100 µM (inactive) | > 100 µM (inactive) | > 100 µM (inactive) | > 100 µM (inactive) | > 100 µM (inactive) | > 100 µM (inactive) | > 100 µM (inactive) | > 100 µM (inactive) | > 100 µM (inactive) | > 100 µM (inactive) | > 100 µM (inactive) | > 100 µM (inactive) | > 100 µM (inactive) | > 100 µM (inactive) | > 100 µM (inactive) | > 100 µM (inactive) | > 100 µM (inactive) |
| COc1ccc(C[C@H]2NC[C@H](OC(C)=O)[C@H]2OC(C)=O)cc1 | 0.172 µM (active) | 0.0935 µM (active) | 0.171 µM (active) | 0.133 µM (active) | 0.177 µM (active) | 0.302 µM (active) | 0.144 µM (active) | 0.158 µM (active) | 0.191 µM (active) | 0.183 µM (active) | 0.171 µM (active) | 0.233 µM (active) | 0.304 µM (active) | 0.112 µM (active) | 0.106 µM (active) | 0.15 µM (active) | 0.151 µM (active) | 0.104 µM (active) | 0.192 µM (active) |
